Type: physicochemical
Details: composition of 10% by weight phospholipid and 90% by weight hexamethyldisiloxane

Clc1ccccc1C(c1ccccc1)(c1ccccc1)n1ccnc1 [clotrimazole]
dissolves in higher concentration than in hexamethyldisiloxane alone: 10 fold
